In patent US11426473B2, “Nitrogen-containing compound or salt thereof, or metal complex thereof” (FUJIFILM Corporation, priority 2013, dated 2022):
Values belong to the compound of their own block, whether it stands above or below them.

Experiments:
[1] = system: U87MG cells subcutaneous tumor; experiment: Concentration of radioactivity in tumor of labeled compounds (Test Example 4); type: in vivo, mouse; conditions: tail vein, 111In 740 kBq, 64Cu and 90Y 500 kBq
Description: U87MG cells were subcutaneously transplanted at 1×10^7 cells/mouse to the right flank of Balb/cAJcl-nu/nu (CLEA Japan, Inc. or Japan SLC, Inc., 6 to 9 weeks old). After 2 to 3 weeks, the mice were divided into groups each involving 3 individuals per point in time when their tumors became 200 to 500 mm^3. The ^111In-labeled compound (740 kBq) was administered to the tail veins of the mice.
After a given time, the animals were sacrificed to extract their tumors. The weights of the tumors were measured, and the radioactivity was measured using a gamma counter to calculate the concentration of radioactivity in the tumors (% ID/g). In the same way as above, the concentration of radioactivity in the tumors (% ID/g) was calculated for the ^64Cu-labeled compound (500 kBq) and the ^90Y-labeled compound (500 kBq).

[2] = system: U87MG cells subcutaneous tumor; experiment: Treatment experiment of subcutaneously U87MG-transplanted model using [90Y]-(P2); type: in vivo, mouse; conditions: 1 dose; for Rate of inhibition: 16 days after administration, above 100% indicated as 100%; for Tumor volume 16 days after administration / Tumor volume At start of administration: n 8, Mean ± SD; for Tumor volume At start of administration: baseline; for The number of individuals having tumor regression: of n 8
Description: (§1) U87MG cells were subcutaneously transplanted at 1×10^7 cells/mouse to the right flank of Balb/c Slc-nu/nu (SLC Japan, Inc., male, 6 weeks old). After 2 weeks, mice whose tumors became 100 to 500 mm^3 were grouped. Phosphate-buffered saline (PBS) or the radiolabeled compound [90Y]-(P2) was administered to the tail veins of the mice, and their tumor volumes were measured. When the tumor volumes of the mice in the PBS group exceeded 2,000 mm^3, which is a humanistic endpoint, the antitumor effect was evaluated. The evaluation values were the rate of inhibition of tumor growth ((1−(Average tumor volume of the compound administration group−Average tumor volume of the compound administration group before administration)/(Average tumor volume of the PBS group−Average tumor volume of the PBS group before administration))×100 (provided that the rate of inhibition exceeding 100% was indicated as 100%)) and the number of individuals having a tumor volume equal to or smaller than that at the start of the experiment (the number of individuals having tumor regression).

[3] = system: T98G cell (human glioblastoma) subcutaneous tumor; experiment: Treatment experiment of subcutaneously T98G-transplanted model using [90Y]-(P2); type: in vivo, mouse; conditions: 1 dose; for Rate of inhibition: 13 days after administration, above 100% indicated as 100%; for Tumor volume 13 days after administration / Tumor volume At start of administration: n 6, Mean ± SD; for Tumor volume At start of administration: baseline; for The number of individuals having tumor regression: of n 6
Description: as §1
A mixture of a T98G cell suspension (human glioblastoma, 1×10^7 cells) and Matrigel (Becton, Dickinson and Company) in equal amounts was subcutaneously transplanted to the right flank of Balb/c Slc-nu/nu (SLC Japan, Inc., male, 6 weeks old). After 77 days, the mice were grouped when their tumors became 300 to 1,200 mm^3. Phosphate-buffered saline (PBS) or the radiolabeled compound [^90Y]-(P2) was administered to the tail veins of the mice, and their tumor volumes were measured. The evaluation values were calculated in the same way as in Test Example 8 to evaluate the antitumor effect.

[4] = Absorbed doses in each organ in humans calculated with OLINDA/EXM 1.0 from monkey organ distribution; type: in vivo; conditions: calculated with OLINDA/EXM 1.0 from monkey imaging with [111In]-(P2)
Description: Blood kinetic parameters were calculated with OLINDA/EXM 1.0 from the blood concentration of radioactivity by blood collection over time from a cynomolgus monkey using [^111In]-(P2). Also, absorbed doses in each organ in the case of administration to humans were calculated with OLINDA/EXM 1.0 from organ distribution by imaging using [^111In]-(P2). The radiolabeled compound [^111In]-(P2) (98 MBq/[…]) was administered to a cynomolgus monkey (Hamri Co., Ltd., male, 3 years old, 3.4 kg) under anesthesia. After the administration, blood collection and imaging with a gamma camera were performed over time. The blood collection was carried out 10 minutes, 30 minutes, 60 minutes, 2 hours, 4 hours, 5 hours, 6 hours, 24 hours, 48 hours, 72 hours, and 144 hours after administration. The imaging was carried out 1, 2, 4, 6, 24, 48, 72, and 144 hours after administration with a gamma camera (Symbia, Siemens AG) to take planar images. The anesthesia was carried out using 20 mg/kg ketamine before administration of [^111In]-(P2) and maintained by inhalation anesthesia (2 to 3% isoflurane, 5 to 8 L/min) until the completion of the imaging at 6 hours after administration. At or after 24 hours after administration, blood collection and imaging were performed by the introduction of 20 mg/kg ketamine and 2 mg/kg xylazine. […] The blood kinetic parameters are shown below.

[5] = Radiochemical purity after standing at room temperature; type: physicochemical; conditions: immediately after preparation and after standing at room temperature for 24 hours
Description: To a mixed solution of compound (P2) (8.5 μg) and a 0.2 mol/L sodium acetate buffer solution (pH 4.0) (1.5 mL), a [^111In] indium chloride solution (80 MBq, 100 μL) was added. The mixture was heated at 100° C. for 15 minutes and then left at room temperature for 5 minutes to obtain radiolabeled compound [^111In]-(P2). […] Its radiochemical purity was 95% or more both immediately after preparation and after standing at room temperature for 24 hours.
To a mixed solution of compound (P2) (79 μg), gentisic acid (1.8 mg), a 0.6 mol/L sodium acetate buffer solution (pH 4.0, 120 μL), and a 0.4 mol/L aqueous sodium hydroxide solution (24 μL), a [^90Y] yttrium chloride solution (700 MBq, 240 μL) was added. The mixture was heated at 100° C. for 20 minutes and then left at room temperature for 5 minutes to obtain radiolabeled compound [^90Y]-(P2). […] Its radiochemical purity was 95% or more both immediately after preparation and after standing at room temperature for 24 hours.
To a mixed solution of compound (P2) ([…]) and a 0.2 mol/L sodium acetate buffer solution (pH 4.0, 219 μL), a [^64Cu] copper chloride solution (pH 5, 35 MBq, 55 μL) was added. The mixture was heated at 100° C. for 15 minutes and then left at room temperature for 5 minutes to obtain radiolabeled compound [^64Cu]-(P2). […] Its radiochemical purity was 90% or more both immediately after preparation and after standing at room temperature for 22 hours.
To a mixed solution of compound (Aa7) (4.2 μg), gentisic acid (1 mg), and a 0.2 mol/L sodium acetate buffer solution (pH 4.0) (5.0 μL), [^64Cu] copper chloride in a 0.2 mol/L sodium acetate buffer solution (pH 4.0) (40 MBq, 155 μL) was added. The mixture was heated at 100° C. for 15 minutes and then left at room temperature for 5 minutes to obtain radiolabeled compound [^64Cu]-(Aa7). […] Its radiochemical purity was 90% or more both immediately after preparation and after standing at room temperature for 24 hours.

[6] = system: HCT116 (human colorectal cancer) subcutaneous tumor; experiment: Tumor accumulation of [111In]-(A8), tissue extraction and radioactivity measurement, HCT116; type: in vivo, mouse; conditions: 740 kBq tail vein
Description: (§2) SK-MEL-28 (human melanoma), A375 (human melanoma), A498 (human renal cell cancer), Caki-2 (human renal cell cancer), HCT116, U87MG, and T98G cells were studied as follows: the cells of each line were cultured and subcutaneously transplanted at 1×10^7 cells/mouse to the right flank of Balb/cAJcl-nu/nu (CLEA Japan, Inc., male, 6 to 8 weeks old). The mice were raised until their tumor volumes reached 85 to 1,075 mm^3. Then, the mice were allocated at the time of anatomy to groups each involving 3 individuals so as to prevent the tumor volumes from disproportioning among the groups. Then, the radiolabeled compound [^111In]-(A8) (740 kBq) was administered to the tail veins of the mice. The animals were sacrificed at the time of anatomy to extract their tumors. The weights of the tumors were measured, and then, the radioactivity was measured using a gamma counter to calculate the concentration of radioactivity in the tumors (% ID/g: % injected dose/g).

[7] = system: SK-MEL-28 (human melanoma) subcutaneous tumor; experiment: Tumor accumulation of [111In]-(A8), tissue extraction and radioactivity measurement, SK-MEL-28; type: in vivo, mouse; conditions: 740 kBq tail vein
Description: as §2

[8] = system: A375 (human melanoma) subcutaneous tumor; experiment: Tumor accumulation of [111In]-(A8), tissue extraction and radioactivity measurement, A375; type: in vivo, mouse; conditions: 740 kBq tail vein
Description: as §2

[9] = system: A498 (human renal cell cancer) subcutaneous tumor; experiment: Tumor accumulation of [111In]-(A8), tissue extraction and radioactivity measurement, A498; type: in vivo, mouse; conditions: 740 kBq tail vein
Description: as §2

[10] = system: Caki-2 (human renal cell cancer) subcutaneous tumor; experiment: Tumor accumulation of [111In]-(A8), tissue extraction and radioactivity measurement, Caki-2; type: in vivo, mouse; conditions: 740 kBq tail vein
Description: as §2

[11] = system: T98G (human glioblastoma) subcutaneous tumor; experiment: Tumor accumulation of [111In]-(A8), tissue extraction and radioactivity measurement, T98G; type: in vivo, mouse; conditions: 740 kBq tail vein
Description: as §2

[12] = system: U87MG (human glioblastoma) subcutaneous tumor; experiment: Tumor accumulation of [111In]-(A8), tissue extraction and radioactivity measurement, U87MG; type: in vivo, mouse; conditions: 740 kBq tail vein
Description: as §2

Concentration of radioactivity in tumor ([1]; 4 hours later): 12.52 % ID/g | Concentration of radioactivity in tumor ([1]; 24 hours later): 15.29 % ID/g | Absorbed dose, Brain [4]: 1.96 mGy/MBq | Absorbed dose, Kidney [4]: 14.70 mGy/MBq | Absorbed dose, Liver [4]: 1.12 mGy/MBq | Absorbed dose, Lung [4]: 1.35 mGy/MBq | Absorbed dose, Red bone marrow [4]: 0.06 mGy/MBq | Absorbed dose, Small intestine [4]: 0.87 mGy/MBq | Absorbed dose, Whole body [4]: 0.27 mGy/MBq | radiochemical purity after standing [5]: ≥ 95%
Structure (SMILES): Cc1cc(OCCCC(=O)NCCNC(=O)[C@H](CS(=O)(=O)O)NC(=O)CN2CCN(CC(=O)[O-])CCN(CC(=O)[O-])CCN(CC(=O)[O-])CC2)cc(C)c1S(=O)(=O)N[C@@H](CNC(=O)CCCCc1ccc2c(n1)NCCC2)C(=O)O.[90Y+3] [[^90Y]-(P2)]
Rate of inhibition ([2]; Dose 14.8 MBa): 95% | Tumor volume 16 days after administration ([2]; Dose 14.8 MBa): 429 ± 188 mm^3 | Tumor volume At start of administration ([2]; Dose 14.8 MBa): 351 ± 72 mm^3 | The number of individuals having tumor regression ([2]; Dose 14.8 MBa): 2 | Rate of inhibition ([2]; Dose 22.2 MBa): 97% | Tumor volume 16 days after administration ([2]; Dose 22.2 MBa): 386 ± 142 mm^3 | Tumor volume At start of administration ([2]; Dose 22.2 MBa): 343 ± 88 mm^3 | The number of individuals having tumor regression ([2]; Dose 22.2 MBa): 2 | Rate of inhibition ([3]; Dose 22.2 MBa): 82% | Tumor volume 13 days after administration ([3]; Dose 22.2 MBa): 882 ± 399 mm^3 | Tumor volume At start of administration ([3]; Dose 22.2 MBa): 755 ± 293 mm^3 | The number of individuals having tumor regression ([3]; Dose 22.2 MBa): 1 | Rate of inhibition ([3]; Dose 29.6 MBa): 97% | Tumor volume 13 days after administration ([3]; Dose 29.6 MBa): 755 ± 313 mm^3 | Tumor volume At start of administration ([3]; Dose 29.6 MBa): 736 ± 264 mm^3 | The number of individuals having tumor regression ([3]; Dose 29.6 MBa): 3

Concentration of radioactivity in tumor ([6]; HCT116, 4 hours later): 3.1 % ID/g | Concentration of radioactivity in tumor ([6]; HCT116, 24 hours later): 2.9 % ID/g | Concentration of radioactivity in tumor ([1]; 4 hours later): 9.48 % ID/g | Concentration of radioactivity in tumor ([1]; 24 hours later): 12.90 % ID/g | Concentration of radioactivity in tumor ([7]; sk-mel-28, 4 hours later): 2.9 % ID/g | Concentration of radioactivity in tumor ([7]; sk-mel-28, 24 hours later): 4.9 % ID/g | Concentration of radioactivity in tumor ([8]; A375, 4 hours later): 3.7 % ID/g | Concentration of radioactivity in tumor ([8]; A375, 24 hours later): 3.8 % ID/g | Concentration of radioactivity in tumor ([9]; A498, 4 hours later): 13.1 % ID/g | Concentration of radioactivity in tumor ([9]; A498, 24 hours later): 7.9 % ID/g | Concentration of radioactivity in tumor ([10]; caki-2, 4 hours later): 6.4 % ID/g | Concentration of radioactivity in tumor ([10]; caki-2, 24 hours later): 8.5 % ID/g | Concentration of radioactivity in tumor ([11]; 4 hours later): 6.5 % ID/g | Concentration of radioactivity in tumor ([11]; 24 hours later): 6.7 % ID/g | Concentration of radioactivity in tumor ([12]; 4 hours later): 12.0 % ID/g | Concentration of radioactivity in tumor ([12]; 24 hours later): 9.3 % ID/g
Structure (SMILES): Cc1cc(OCCCC(=O)NCCNC(=O)C(CS(=O)(=O)O)NC(=O)C(CS(=O)(=O)O)NC(=O)CN2CCN(CC(=O)[O-])CCN(CC(=O)[O-])CCN(CC(=O)[O-])CC2)cc(C)c1S(=O)(=O)NC(CNC(=O)c1ccc(CCc2ccc3c(n2)NCCC3)cc1)C(=O)O.[111In+3] (stereo not drawn) [[^111In]-(A8)]
